From patent publication US20040091479A1, “T-cell epitope of the papillomavirus l1 and e7 protein and use thereof in diagnostics and therapy” (priority 2000, published 2004)

Legend:
[1] = test system: T cell lines directed against HPV18 E7; experiment: ELISpot of T cell lines induced with HPV18 E7-loaded dendritic cells; assay type: cell-based, human; details: E7 protein-induced and E7 peptide pool-induced T cell lines; epitope-loaded DC; FIG. 18 top
Protocol: 1×10^4 stimulator cells (K-A2 cells, that is K-562 cells (ATCC CCL-243) were transfected with an HLA A2 expression vector, PBMC or dendritic cells) were sown, in 60 μl of medium (RPMI 1640, 0.4% human albumin), in one well of a 96-well round-bottomed cell culture plate and loaded overnight with 50 μg of peptide/ml. On the following day, 5×10^4 T cells, in 60 μl of medium (containing 10 U each of IL-2 and IL-7/ml), were added to each well and the plate was incubated for 4 hours. A Millipore nitrocellulose HA plate was coated overnight, at 4° C., with the anti-human IFN-γ monoclonal antibody 1-Dlk (10 μg/ml in PBS, 60 μl/well, Hölzel Diagnostika, Cologne). On the following day, the plate was washed 3 times for in each case 5 min with 150 μl of sterile PBS per well and then blocked with medium for 1 hour at 37° C. The blocking medium was removed and the cells were transferred from the round-bottomed cell culture plate to the filter plate and then incubated for a further 20 to 22 hours. After that, the cells and the medium were removed and the filter plate was washed 6 times for 2 min with PBS/Tween 20 (0.05%). The antibody Ab-7-B6-1-biotin was then added (2 μg/ml in PBS/BSA, 60 μl/well, Hölzel Diagnostika) and the plate was incubated at 4° C. overnight. […] The spots were counted using a ZEISS-VISION (Halbergmoos) ELISpot readout system. […]

[2] = test system: TIL from an HPV18- and HLA-A2-positive patient; experiment: ELISpot of tumor-infiltrating lymphocytes with peptide-loaded K-A2 cells; assay type: cell-based, human; details: peptide-loaded K-A2 stimulators; FIG. 18 bottom
[3] = test system: T cell line generated with HeLa CD80/HLA-A2 transfectants (H7.1-A2); experiment: IFN-γ ELISpot of H7.1-A2-specific T cell line against peptide-loaded autologous PBMC; assay type: cell-based, human; details: H7.1-A2-induced T cell line, FIG. 17 top
[4] = test system: autologous peptide-loaded BLCL; experiment: Cytotoxicity test (chromium release assay) of HPV18 E786-94-specific T cells; assay type: cell-based, human; details: effector to target ratio of 30:1, FIG. 17 bottom
Protocol: The predicted peptides were synthesized using standard methods (F moc method). […] For this, 1×10^5 PBMC derived from healthy, HLA-A2-positive donors were sown, in 100 μl of medium (RPMI 1640, 10% heat-inactivated AB plasma), in each well of a 96-well plate. 20 μg of peptide/ml were added to the culture medium. The cells were incubated at 37° C. and restimulated once per week with irradiated peptide-loaded autologous PBMC. The stimulator PBMC were incubated for 4 hours in medium containing 20 μg of peptide/ml. After the irradiation, they were diluted down to 1×10^4/100 μl with medium and added to the peptide-stimulated PBMC. For this, half the medium was aspirated from each well and 100 μl of the stimulator PBMC suspension were added. 10 U of IL-2/ml and 10 U of IL-7/ml were added from the 3rd stimulation onwards. From the 5th stimulation onwards, restimulation was carried out in the same manner using peptide-loaded autologous B lymphoblast cell lines (BLCL).
The cytotoxicity of HPV18 E786-94-specific T cells was determined in a chromium release assay. Autologous BLCL were used as the target cells. In each case, 5×10^5 cells were taken up in 100 μl of medium (RPMI 1640, 10% FCS) and treated with 20 μl of ^51chromium (NEN). For loading the BLCL with peptide, 50 μg of the corresponding peptide were added/ml. After that, the cells were incubated at room temperature for 2 hours while being carefully resuspended every 20-30 min. The cells were then washed 3 times with 5 ml of medium. For the sedimenting, the cells were in each case centrifuged at 1500 rpm for 5 min and then carefully resuspended. […]
The assay samples were incubated for 4 hours at 37° C., 98% atmospheric humidity and 5% CO2. […] On the following day, 150 μl of Microscint 40 scintillation fluid (Canberra-Packard, Deieich) were added and the numbers of distintegrations per minute in the individual assay samples were measured in the scintillation counter (Topcount, Canberra-Packard, Dreieich).
The specific lysis was calculated using the following formula: […]

human T cells = experiment: Summary of examples 3 to 18: epitopes recognized by human T cells; assay type: cell-based; details: Table 4, HPV18 peptides, species human; MHC restriction

FQQLFLNTL [HPV18 E786-94, HPV18 E7 86-94]
epitope-specific T cells in ELISpot assay [1]: detected in both T cell lines | ELISpot reaction of TIL populations [2]: marked reaction | IFN-γ ELISpot reaction [3]: specific reaction | specific lysis [4]: approx. 20% | Haplotype (human T cells): HLA-A2
